Measured values from ChEMBL document CHEMBL1201862, “PubChem BioAssay data set” (2004).
The source made the active and inactive calls.

Key:
Caspase-6 = target: T1, Caspase-6 (Homo sapiens, UniProt P55212); assay: inhibition of CASP6 peptide cleavage – biochemical, VEID-R110 fluorescence, cherry-pick, dose response (AID 720632)
T1 sequence (P55212 whole entry): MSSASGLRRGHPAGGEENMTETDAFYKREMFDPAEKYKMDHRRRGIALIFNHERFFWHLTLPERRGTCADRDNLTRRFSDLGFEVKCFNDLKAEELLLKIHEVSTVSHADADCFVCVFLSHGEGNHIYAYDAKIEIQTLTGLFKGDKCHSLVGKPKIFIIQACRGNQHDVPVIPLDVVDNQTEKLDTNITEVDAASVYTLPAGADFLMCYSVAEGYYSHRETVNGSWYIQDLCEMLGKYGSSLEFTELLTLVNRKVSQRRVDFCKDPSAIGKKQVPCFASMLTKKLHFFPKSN

Keap1/Nrf2 = Keap1/Nrf2 (Homo sapiens, UniProt Q14145); assay: disruptors of Keap1 binding to Nrf2 peptide – biochemical, fluorescence polarization, cherry-picked samples, dose response (AID 588683)
Caspase-7 = Caspase-7 (Homo sapiens, UniProt P55210); assay: caspase-7 enzyme inhibition, selectivity check – biochemical, DEVD-R110 fluorescence, cherry-pick, selectivity assay for caspase-6 inhibitor project, dose response (AID 743295); format: functional
[1] = target: Peroxisome proliferator-activated receptor gamma/Nuclear receptor coactivator 3 (Homo sapiens, UniProt P37231); assay: (§1) TR-FRET dose response biochemical High Throughput Screening assay for agonists of the steroid receptor coactivator 3 (SRC-3) recruitment by the peroxisome proliferator-activated receptor gamma (PPAR gamma): non-selective agonists. [Related pubchem assays: 1301 (Confirmation screen.), 1048 (Primary screen.)]; format: functional
[2] = target: Photoreceptor-specific nuclear receptor (Homo sapiens, UniProt Q9Y5X4); format: functional;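 further: potency for compounds that break the NR2E3 corepressor complex and count as activators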
[3] = target: Peroxisome proliferator-activated receptor gamma/Nuclear receptor coactivator 1 (Homo sapiens, UniProt P37231); assay: as §1, with “1 (SRC-1)” for “3 (SRC-3)”, “assays (depositor defined):AID1300, AID1808, AID504735, AID631]” for “assays: 1301 (Confirmation screen.), 1048 (Primary screen.)]”; format: protein assay
[4] = NIH-3T3 fibroblast cytotoxicity, dose response, cytotoxicity control, cell-based, fluorescence, Alamar Blue, secondary assay (AID 2327); format: functional;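 further: NIH-3T3 mouse fibroblasts cultured with fluconazole at 8 µg/mL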
[5] = target: Serine/threonine-protein phosphatase (Candida dubliniensis (strain CD36 / CBS 7987 / NCPF 3949 / NRRLY-17841) (Yeast), UniProt B9W6M3); assay: blockers of CaCl2-induced CDRE-lacZ signaling – S. cerevisiae, luminescence, secondary, dose response (AID 2388); format: functional, cell-based;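 further: yeast reporter cells carrying a calcineurin-responsive lacZ construct stimulated with calcium chloride; luminescent beta-galactosidase reporter signal in whole cells rather than isolated phosphatase activity; potency for inhibition where a drop in reporter signal means calcineurin blockade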
[6] = fluconazole-exposed Candida albicans growth modulators – fluorescence, retest, confirmation (AID 2467); format: functional, cell-based
[7] = target: Peroxisome proliferator-activated receptor gamma/Nuclear receptor coactivator 2 (Homo sapiens, UniProt P37231); assay: TR-FRET dose response biochemical High Throughput Screening assay for agonists of the steroid receptor coactivator 2 (SRC-2) recruitment by the peroxisome proliferator-activated receptor gamma (PPAR gamma): non-selective agonists. [Related pubchem assays: 1297, 1032 ]; format: functional
Cytochrome P450 2C19 = Cytochrome P450 2C19 (Homo sapiens, UniProt P33261); assay: Cytochrome panel assay with activity outcomes. Panel member name: p450-cyp2c19 Compounds with AC50 equal or less than 10 uM are considered active; format: functional; settings: read-out: AC50
[8] = target: Peroxisome proliferator-activated receptor gamma/Nuclear receptor corepressor 2 (Homo sapiens, UniProt P37231+Q9Y618); format: functional
fMet-Leu-Phe receptor = fMet-Leu-Phe receptor (Homo sapiens, UniProt P21462); assay: formyl peptide receptor binders – dose response (AID 519); format: functional
Cytochrome P450 3A4 = Cytochrome P450 3A4 (Homo sapiens, UniProt P08684);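 further: CYP3A4 tested as one member of a cytochrome P450 panel screen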
[9] = target: ATP-dependent molecular chaperone HSP82 (Candida albicans (strain WO-1) (Yeast), UniProt C4YTQ8); assay: steroid-induced GRE reporter decrease in yeast – S. cerevisiae, luminescence, Hsp90 inhibitor project, dose response (AID 2400); format: functional, cell-based;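 further: beta-galactosidase luminescence from glucocorticoid response element reporter as proxy for Hsp90 function; inhibitor potency where signal loss means Hsp90 inhibition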
Genome polyprotein = Genome polyprotein (dengue virus type 2, UniProt P29990); assay: flavivirus cap methylation enzyme inhibition – biochemical, confirmation dose response, primary screen (AID 588689); format: functional
[10] = target: Dual specificity tyrosine-phosphorylation-regulated kinase 1A (Rattus norvegicus, UniProt Q63470); format: biochemical, Homo sapiens
Vero = assay: viability of Vero cells under compound – cytotoxicity control for flavivirus capping enzyme inhibitors (AID 588742); format: functional; settings: Chlorocebus sabaeus
[11] = target: Female germline-specific tumor suppressor gld-1 (Caenorhabditis elegans, UniProt Q17339); assay: blockers of GLD-1/TGE RNA complex formation – biochemical, fluorescence polarization, C. elegans, dose response (AID 2802);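 further: fluorescence polarization of labeled TGE RNA bound by purified gld-1 protein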
Protein Rev = Protein Rev (Human immunodeficiency virus type 1 group M subtype B (isolate HXB2)(HIV-1), UniProt P04618); assay: blockers of HIV Rev/RRE RNA complex – biochemical, fluorescence polarization, HIV-1, dose response (AID 434976); set-up: species or system Human immunodeficiency virus 1
[12] = target: T2, Nuclear receptor subfamily 0 group B member 1 (Homo sapiens, UniProt P51843); assay: Luminescence-based cell-based high throughput dose response assay for inhibitors of the orphan nuclear receptor subfamily 0, group B, member 1 (DAX1; NR0B1). [Related pubchem assays (depositor defined):AID504766, AID504790]; format: functional
T2 sequence (P51843 whole entry): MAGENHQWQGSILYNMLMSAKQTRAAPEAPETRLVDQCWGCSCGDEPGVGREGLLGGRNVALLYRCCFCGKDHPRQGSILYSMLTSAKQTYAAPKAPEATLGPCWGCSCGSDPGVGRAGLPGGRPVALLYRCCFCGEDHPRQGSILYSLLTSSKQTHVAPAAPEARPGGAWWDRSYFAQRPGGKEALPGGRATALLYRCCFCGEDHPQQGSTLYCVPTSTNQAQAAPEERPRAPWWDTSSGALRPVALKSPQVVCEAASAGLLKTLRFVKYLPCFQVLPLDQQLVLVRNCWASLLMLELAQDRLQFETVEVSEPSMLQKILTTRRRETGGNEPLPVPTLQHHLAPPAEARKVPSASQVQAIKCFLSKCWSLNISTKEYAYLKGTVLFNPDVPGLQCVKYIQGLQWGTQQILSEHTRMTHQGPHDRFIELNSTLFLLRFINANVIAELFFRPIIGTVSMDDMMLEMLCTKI

HEK293 = assay: cells; format: functional, cell-based; settings: Homo sapiens
[13] = target: Beta-2 adrenergic receptor (Homo sapiens, UniProt P07550); assay: ADRB2 activation measured by internalization – cell-based, FAP fluorogen, flow cytometry, cherry pick 1, dose response (AID 588763); format: functional

fMet-Leu-Phe receptor, sequence (P21462 whole entry): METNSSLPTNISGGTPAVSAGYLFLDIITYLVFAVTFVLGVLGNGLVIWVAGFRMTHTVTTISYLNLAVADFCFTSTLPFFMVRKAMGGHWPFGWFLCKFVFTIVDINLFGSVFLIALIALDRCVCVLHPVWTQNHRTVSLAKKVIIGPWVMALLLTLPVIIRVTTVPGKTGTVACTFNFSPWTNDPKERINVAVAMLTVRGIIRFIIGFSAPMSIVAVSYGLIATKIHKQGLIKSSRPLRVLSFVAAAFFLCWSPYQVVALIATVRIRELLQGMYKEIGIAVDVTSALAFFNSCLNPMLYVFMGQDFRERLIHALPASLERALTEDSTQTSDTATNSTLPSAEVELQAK
ATP-dependent molecular chaperone HSP82, sequence (C4YTQ8 whole entry): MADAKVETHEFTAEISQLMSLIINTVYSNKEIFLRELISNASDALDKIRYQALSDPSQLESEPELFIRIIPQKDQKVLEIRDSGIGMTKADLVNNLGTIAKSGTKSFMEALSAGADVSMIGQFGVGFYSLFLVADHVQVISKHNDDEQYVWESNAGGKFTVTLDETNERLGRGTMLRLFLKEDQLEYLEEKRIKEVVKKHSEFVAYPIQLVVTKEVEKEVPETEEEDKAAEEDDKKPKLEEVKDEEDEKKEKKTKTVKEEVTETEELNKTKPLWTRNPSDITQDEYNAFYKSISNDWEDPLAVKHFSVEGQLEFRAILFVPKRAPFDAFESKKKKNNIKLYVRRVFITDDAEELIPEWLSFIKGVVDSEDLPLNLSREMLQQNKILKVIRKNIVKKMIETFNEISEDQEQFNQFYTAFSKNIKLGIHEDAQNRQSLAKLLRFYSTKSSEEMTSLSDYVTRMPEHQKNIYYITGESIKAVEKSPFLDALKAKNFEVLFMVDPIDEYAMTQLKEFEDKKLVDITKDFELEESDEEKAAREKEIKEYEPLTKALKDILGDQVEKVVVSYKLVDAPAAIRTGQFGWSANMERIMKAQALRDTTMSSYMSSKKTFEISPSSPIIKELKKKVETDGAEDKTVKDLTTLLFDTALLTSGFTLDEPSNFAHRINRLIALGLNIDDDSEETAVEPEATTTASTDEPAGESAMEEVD
Serine/threonine-protein phosphatase, sequence (B9W6M3 whole entry): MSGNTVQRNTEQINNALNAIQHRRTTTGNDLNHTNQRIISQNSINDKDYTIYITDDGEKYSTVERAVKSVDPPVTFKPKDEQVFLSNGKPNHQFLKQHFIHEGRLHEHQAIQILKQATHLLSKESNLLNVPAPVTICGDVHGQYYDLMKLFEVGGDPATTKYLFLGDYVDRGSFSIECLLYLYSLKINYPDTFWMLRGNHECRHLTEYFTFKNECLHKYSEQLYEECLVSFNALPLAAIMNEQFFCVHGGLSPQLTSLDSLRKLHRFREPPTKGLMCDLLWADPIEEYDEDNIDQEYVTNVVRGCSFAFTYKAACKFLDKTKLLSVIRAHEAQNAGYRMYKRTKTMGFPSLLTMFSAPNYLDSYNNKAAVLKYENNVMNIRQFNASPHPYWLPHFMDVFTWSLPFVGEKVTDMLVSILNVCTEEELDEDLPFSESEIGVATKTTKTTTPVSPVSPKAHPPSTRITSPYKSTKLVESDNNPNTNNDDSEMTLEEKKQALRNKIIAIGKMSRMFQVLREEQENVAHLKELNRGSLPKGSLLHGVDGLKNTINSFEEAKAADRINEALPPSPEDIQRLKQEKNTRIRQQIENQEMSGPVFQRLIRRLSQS
Keap1/Nrf2, sequence (Q16236 whole entry): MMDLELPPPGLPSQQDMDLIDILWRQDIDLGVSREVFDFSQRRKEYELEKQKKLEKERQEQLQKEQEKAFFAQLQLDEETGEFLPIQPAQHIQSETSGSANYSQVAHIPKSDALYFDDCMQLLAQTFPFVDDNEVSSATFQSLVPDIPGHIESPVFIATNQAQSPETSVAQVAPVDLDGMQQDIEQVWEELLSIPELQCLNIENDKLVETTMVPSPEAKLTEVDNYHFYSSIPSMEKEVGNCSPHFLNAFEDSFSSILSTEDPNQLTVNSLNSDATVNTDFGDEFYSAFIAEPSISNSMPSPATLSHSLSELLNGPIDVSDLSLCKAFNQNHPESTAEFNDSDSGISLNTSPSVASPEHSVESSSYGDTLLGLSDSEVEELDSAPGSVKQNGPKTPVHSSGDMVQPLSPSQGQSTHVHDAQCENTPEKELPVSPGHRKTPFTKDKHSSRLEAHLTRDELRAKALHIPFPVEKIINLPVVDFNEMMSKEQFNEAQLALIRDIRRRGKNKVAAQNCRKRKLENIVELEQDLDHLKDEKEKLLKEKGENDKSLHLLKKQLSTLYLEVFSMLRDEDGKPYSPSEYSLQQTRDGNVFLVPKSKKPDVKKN
Keap1/Nrf2, sequence (Q14145 whole entry): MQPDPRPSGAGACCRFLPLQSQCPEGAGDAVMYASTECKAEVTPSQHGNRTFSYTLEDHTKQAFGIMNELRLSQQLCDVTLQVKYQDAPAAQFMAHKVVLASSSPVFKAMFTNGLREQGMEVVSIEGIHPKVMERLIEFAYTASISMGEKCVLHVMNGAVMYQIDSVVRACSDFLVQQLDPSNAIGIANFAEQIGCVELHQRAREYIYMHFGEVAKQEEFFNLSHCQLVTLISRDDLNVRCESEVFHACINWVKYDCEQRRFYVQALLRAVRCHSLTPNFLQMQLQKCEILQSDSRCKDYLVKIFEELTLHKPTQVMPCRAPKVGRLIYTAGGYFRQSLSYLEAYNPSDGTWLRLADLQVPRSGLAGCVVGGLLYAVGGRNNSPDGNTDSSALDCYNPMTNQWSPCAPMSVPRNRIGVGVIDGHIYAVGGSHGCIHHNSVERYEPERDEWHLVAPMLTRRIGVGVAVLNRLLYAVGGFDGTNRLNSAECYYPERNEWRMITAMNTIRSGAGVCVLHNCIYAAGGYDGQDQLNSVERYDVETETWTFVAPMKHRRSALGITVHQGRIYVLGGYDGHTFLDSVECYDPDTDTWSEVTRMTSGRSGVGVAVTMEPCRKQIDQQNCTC
Peroxisome proliferator-activated receptor gamma/Nuclear receptor coactivator 2, sequence (P37231 whole entry): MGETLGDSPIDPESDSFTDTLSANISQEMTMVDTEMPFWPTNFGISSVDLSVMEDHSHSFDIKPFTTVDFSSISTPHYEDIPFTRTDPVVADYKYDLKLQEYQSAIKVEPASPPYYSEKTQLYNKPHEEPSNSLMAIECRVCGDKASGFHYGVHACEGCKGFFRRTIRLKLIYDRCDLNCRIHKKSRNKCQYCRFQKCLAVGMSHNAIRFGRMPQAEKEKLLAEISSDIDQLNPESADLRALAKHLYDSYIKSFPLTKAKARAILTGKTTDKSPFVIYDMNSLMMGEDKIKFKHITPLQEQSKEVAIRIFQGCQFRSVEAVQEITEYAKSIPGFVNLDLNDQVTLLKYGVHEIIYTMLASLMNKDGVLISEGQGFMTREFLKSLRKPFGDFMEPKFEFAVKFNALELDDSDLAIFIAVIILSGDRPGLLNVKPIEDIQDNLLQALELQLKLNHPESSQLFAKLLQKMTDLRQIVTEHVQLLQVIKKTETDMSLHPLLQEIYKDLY
Peroxisome proliferator-activated receptor gamma/Nuclear receptor coactivator 2, sequence (Q15596 whole entry, further chain): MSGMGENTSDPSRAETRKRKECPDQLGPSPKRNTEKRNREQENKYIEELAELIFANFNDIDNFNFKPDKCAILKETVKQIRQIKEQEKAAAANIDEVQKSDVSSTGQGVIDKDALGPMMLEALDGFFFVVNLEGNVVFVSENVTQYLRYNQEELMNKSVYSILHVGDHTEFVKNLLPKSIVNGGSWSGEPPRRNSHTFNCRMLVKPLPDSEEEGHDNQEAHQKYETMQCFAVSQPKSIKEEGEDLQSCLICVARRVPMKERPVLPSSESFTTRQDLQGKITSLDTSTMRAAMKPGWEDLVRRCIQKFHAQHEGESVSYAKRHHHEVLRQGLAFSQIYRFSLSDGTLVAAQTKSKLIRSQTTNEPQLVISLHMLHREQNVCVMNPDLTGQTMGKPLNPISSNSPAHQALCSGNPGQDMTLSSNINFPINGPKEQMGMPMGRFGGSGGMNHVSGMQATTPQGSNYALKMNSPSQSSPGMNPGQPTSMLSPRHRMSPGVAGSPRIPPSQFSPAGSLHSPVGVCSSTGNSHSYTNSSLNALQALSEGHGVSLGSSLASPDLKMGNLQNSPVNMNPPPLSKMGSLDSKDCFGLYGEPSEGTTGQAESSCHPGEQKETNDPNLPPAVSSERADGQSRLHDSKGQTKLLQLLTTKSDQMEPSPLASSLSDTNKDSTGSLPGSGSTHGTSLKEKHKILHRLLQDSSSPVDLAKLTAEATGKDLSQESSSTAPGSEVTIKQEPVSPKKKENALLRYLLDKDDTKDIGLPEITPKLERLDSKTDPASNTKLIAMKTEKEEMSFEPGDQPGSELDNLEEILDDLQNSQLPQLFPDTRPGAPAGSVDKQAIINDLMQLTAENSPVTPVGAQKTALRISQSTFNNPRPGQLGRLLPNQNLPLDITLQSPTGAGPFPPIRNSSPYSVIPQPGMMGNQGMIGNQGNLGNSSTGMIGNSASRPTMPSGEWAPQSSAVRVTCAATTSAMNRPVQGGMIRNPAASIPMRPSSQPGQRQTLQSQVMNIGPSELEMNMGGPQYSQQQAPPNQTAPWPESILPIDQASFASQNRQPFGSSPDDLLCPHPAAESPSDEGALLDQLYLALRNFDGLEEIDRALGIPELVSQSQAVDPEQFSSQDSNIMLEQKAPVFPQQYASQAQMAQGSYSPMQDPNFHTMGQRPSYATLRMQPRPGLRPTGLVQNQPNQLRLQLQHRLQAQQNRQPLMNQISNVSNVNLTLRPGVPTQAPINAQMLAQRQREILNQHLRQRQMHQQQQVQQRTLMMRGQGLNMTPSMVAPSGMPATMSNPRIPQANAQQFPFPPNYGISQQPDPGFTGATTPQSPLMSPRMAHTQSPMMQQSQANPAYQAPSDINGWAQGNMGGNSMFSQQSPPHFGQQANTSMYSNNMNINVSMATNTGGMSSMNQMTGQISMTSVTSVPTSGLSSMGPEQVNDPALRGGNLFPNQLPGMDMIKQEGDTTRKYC
Protein Rev, sequence (P04618 whole entry): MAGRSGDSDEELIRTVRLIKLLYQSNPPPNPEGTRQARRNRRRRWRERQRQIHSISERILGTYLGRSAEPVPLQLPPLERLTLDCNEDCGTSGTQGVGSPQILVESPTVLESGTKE

For `Cc1oc2c(cc(NS(=O)(=O)c3ccc(C(C)C)cc3)c3ccccc32)c1C(=O)O`, the AC50 (Caspase-6) was 4 µM (active), the AC50 (Keap1/Nrf2) was 21.7 µM (active) and the AC50 (Caspase-7) was > 70 µM (inactive).
With `COc1cccc(C2C(C(=O)c3cc4ccccc4o3)=C(O)C(=O)N2c2cc(C)on2)c1OC` (stereo not drawn) the EC50 [1] was > 79.4 µM (not active), the IC50 [2] was > 39.8 µM (not active) and the EC50 [3] was 35.9 µM (inactive). For the same compound, the EC50 [4] was > 150 µM (inactive), the EC50 [5] was > 180 µM (inactive) and the EC50 [6] was 610 nM (active). The EC50 [7] was 9.84 µM (active), the AC50 (Cytochrome P450 2C19) was 15.8 µM (inconclusive) and the IC50 [8] was 4.97 µM (active). For the same compound, the Ki (fMet-Leu-Phe receptor) was > 66.7 µM (inactive), the AC50 (Cytochrome P450 3A4) was 28.2 µM (inconclusive) and the EC50 [9] was 17.2 µM (active).
With `COc1cc(O)cc2cc3c(c(O)c12)C(=O)CC(C)(O)O3` (stereo not drawn) the IC50 (Genome polyprotein) was 38.1 µM (active), the AC50 [10] was 2.92 µM (active) and the CC50 (Vero) was > 40 µM (active). For the same compound, the IC50 [11] was 2.96 µM (active) and the IC50 (Protein Rev) was 16.2 µM (not active).
In the case of `Cc1ccccc1NC(=O)Nc1nc2ccc(S(C)(=O)=O)cc2s1`, the IC50 [12] is reported as > 67.5 µM (inactive) and the IC50 (HEK293) is reported as > 67.5 µM (inactive).
With `O=C(Cn1nc(-c2ccccc2)ccc1=O)Nc1ccc(NC(=O)c2ccccn2)cc1` the EC50 [13] was 8.16 nM (active).
